Reference: patent US20100035873A1 (Pfizer Inc, priority 2008, published 2010)

Target: T1, human kappa opioid receptor (Homo sapiens, UniProt P41145)
T1 construct: expressed in transfected cells; host or cells: CHO cells
Experiment: Binding assay, [3H]diprenorphine displacement on membranes from CHO cells (kappa assay)
Conditions: membranes from CHO cells expressing human kappa opioid receptor, ranges given when more than one data point
Experimental: Binding assays on membranes from CHO cells expressing either human kappa, mu or delta opioid receptors were performed according to standard procedures. Briefly, frozen cell paste (70-80-mgs per 96 well plate) is homogenized in 50 mM Tris HCl buffer (pH 7.4 @ 4 degrees C.) containing 2.0 mM MgCl2 using a Polytron and spun in a centrifuge at 40,000 g for ten minutes. The final pellet is resuspended in assay buffer (50 mM Tris HCl buffer (pH 7.4) containing 1 mM EDTA, 5 mM MgCl2). Incubations were initiated by the addition of tissue to 96-well plates containing test drugs and 0.4-1 nM [3H]diprenorphine in a final volume of 250 ul). Non-specific binding was determined by radioligand binding in the presence of a saturating concentration of naltrexone (10 uM). After one hour incubation period at room temperature, assay samples were rapidly filtered through Whatman GF/B filters and rinsed with ice-cold 50 mM Tris buffer (pH 7.4). Membrane bound [3H]diprenorphine levels were determined by liquid scintillation counting of the filters in BetaScint. […] Ki values were calculated according to the Cheng Prusoff equation, Ki=IC50/(1+(L/Kd)), where L is the concentration of the radioligand used in the experiment and the Kd value is the dissociation constant for the radioligand (determined previously by saturation analysis).

T1 sequence (P41145 whole entry): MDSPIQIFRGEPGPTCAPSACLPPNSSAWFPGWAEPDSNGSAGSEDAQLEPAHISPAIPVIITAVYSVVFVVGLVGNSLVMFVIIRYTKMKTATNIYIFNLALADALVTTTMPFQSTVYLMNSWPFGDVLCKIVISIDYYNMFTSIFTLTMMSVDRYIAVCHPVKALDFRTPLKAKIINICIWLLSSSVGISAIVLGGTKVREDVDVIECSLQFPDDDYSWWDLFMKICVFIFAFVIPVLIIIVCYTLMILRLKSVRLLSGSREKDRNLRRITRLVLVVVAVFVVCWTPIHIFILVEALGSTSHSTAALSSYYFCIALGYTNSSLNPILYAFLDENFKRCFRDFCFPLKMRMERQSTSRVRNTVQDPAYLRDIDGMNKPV

| Compound | Ki [nM] |
| --- | --- |
| O=S(=O)(c1ccccc1-c1ccc(CNC2C[C@H]3CC[C@@H]2C3)cc1)N1CCCC1 (stereo partly drawn) [Example 4a, (1R,4S)-Bicyclo[2.2.1]hept-2-yl-[2′-(pyrrolidine-1-sulfonyl)-biphenyl-4-ylmethyl]-amine] | 0.58 to 0.66 |
| CC1(C)CCCN(Cc2ccc(-c3ccccc3S(=O)(=O)N3CCCC3)cc2)C1 [Example 4e, 3,3-Dimethyl-1-[2′-(pyrrolidine-1-sulfonyl)-biphenyl-4-ylmethyl]-piperidine] | 5.03 to 6.34 |
| O=S(=O)(c1ccccc1-c1ccc(CNC2CCOC2)cc1)N1CCCC1 (centres unmarked) [Example 4i, [2′-(Pyrrolidine-1-sulfonyl)-biphenyl-4-ylmethyl]-(tetrahydro-furan-3-yl)-amine] | 6.59 to 13 |
| CC(C)CNCc1ccc(-c2ccccc2S(=O)(=O)N2CCC[C@H]2C)cc1 [Example 4j, Isobutyl-[2′-((R)-2-methyl-pyrrolidine-1-sulfonyl)-biphenyl-4-ylmethyl]-amine] | 0.9 to 2.61 |
| C[C@@H]1COCCN1S(=O)(=O)c1ccccc1-c1ccc(CNCCC(C)(C)C)cc1 [Example 4k, (3,3-Dimethyl-butyl)-[2′-((R)-3-methyl-morpholine-4-sulfonyl)-biphenyl-4-ylmethyl]-amine] | 1.19 to 2.34 |
| C[C@@H]1COCCN1S(=O)(=O)c1ccccc1-c1ccc(CNCCC(C)(C)C)c(F)c1 [Example 4o] | 2.11 to 5.08 |

Now from value to molecule:

| Ki [nM] | Compound |
| --- | --- |
| 1.41 to 6.84 | O=S(=O)(c1ccccc1-c1ccc(CN2C[C@H]3CCC[C@@H]2C3)c(F)c1)N1CCCC1 [Example 4m, (1S,5R)-6-[3-Fluoro-2′-(pyrrolidine-1-sulfonyl)-biphenyl-4-ylmethyl]-6-aza-bicyclo[3.2.1]octane] |
| 2.68 to 6.78 | C[C@@H]1COCCN1S(=O)(=O)c1ccccc1-c1ccc(CNC2CC3CCC2C3)c(F)c1 (stereo partly drawn) [Example 4p, Bicyclo[2.2.1]hept-2-yl-[3-fluoro-2′-((R)-3-methyl-morpholine-4-sulfonyl)-biphenyl-4-ylmethyl]-amine] |
| 3.46 to 8.28 | CC(C)CNCc1ccc(-c2ccccc2S(=O)(=O)N2CCC[C@H]2C)cc1F [Example 4r, [3-Fluoro-2′-((R)-2-methyl-pyrrolidine-1-sulfonyl)-biphenyl-4-ylmethyl]-isobutyl-amine] |
| 5.76 | O=S(=O)(c1ncccc1-c1ccc(CNC2CC3CCC2C3)cc1)N1CCCC1 [Example 4t, (5S,6R)-Bicyclo[2.2.1]hept-2-yl-{4-[2-(pyrrolidine-1-sulfonyl)-pyridin-3-yl]-benzyl}-amine] |
| 6.13 | CC(C)CNCc1ccc(-c2ccccc2S(=O)(=O)N(C)C(C)C)cc1 [Example 4v, 4′-(Isobutylamino-methyl)-biphenyl-2-sulfonic acid isopropyl-methyl-amide] |
| 10.3 | CC(C)(C)CCNCc1ccc(-c2ncccc2S(=O)(=O)N2CCCC2)cc1 [Example 4w, (3,3-Dimethyl-butyl)-{4-[3-(pyrrolidine-1-sulfonyl)-pyridin-2-yl]-benzyl}-amine] |
| 12.3 | O=S(=O)(c1cccnc1-c1ccc(CNC2C[C@@H]3CC[C@H]2C3)cc1)N1CCCC1 (stereo partly drawn) [Example 4x, (1S,4R)-Bicyclo[2.2.1]hept-2-yl-{4-[3-(pyrrolidine-1-sulfonyl)-pyridin-2-yl]-benzyl}-amine] |
| 12.5 to 24.8 | COc1cc(-c2ccccc2S(=O)(=O)N2CCCC2)ccc1CNCC(C)C [Example 4y, Isobutyl-[3-methoxy-2′-(pyrrolidine-1-sulfonyl)-biphenyl-4-ylmethyl]-amine] |
